B1: Mycobacterium abscessus NADH pyrophosphatase NudC (MAB_3513c), wild type (enzyme)
chain: MTFRLRNIPLLSRVGLDRADELRSNPEELAKGWAEAGLITLDVRGRVNIVDGQVVIEDAARIGDQPPEHAVFLGRIPGGRHVWAVRADLDEDSAPLLDLRRSGQLFDDTSAALLATAMAMLAWHDNAGYSPVDGSPTIPAKGGWVRVNSATGQEEFPRTDPAIICLVHDGGDRAVLGRQKFWPERMFSLLAGFVEAGESLEACVAREVAEEVGLTVTDVQYLGSQPWPFPRSIMLGFHAIGDPSQPFAFNDGEIAEADWFTRAEVRSALEAGDWTTASDSRLMLPGSISIAREIVESWAYAGEEPPAGRP
notes: NADH pyrophosphatase NudC of Mycobacterium abscessus, gene MAB_3513c (nudC); The strain used in the study is M. abscessus subsp. abscessus GZ002 (genome GenBank CP034181); also called Wt NudC; source: E. coli BL21 (λDE3), pET-28a, purified (his-tag protein purification kit)

Assays:
[1] = target: T1, NudC (NudC^Mab; MAB_3513c) (Mycobacteroides abscessus, UniProt A0A0U1C370); experiment: HPLC/MS of metabolite extracts, wild type versus nudC deletion strain; assay type: cell-based; conditions: adduct formed in cells from ethionamide (256 ug/mL, 3 h, 37 C); no purified enzyme assay
T1 construct: native full-length protein in M. abscessus cells, compared with isogenic nudC deletion; functional homodimer

[2] = target: the molecule itself; experiment: SEC; HiLoad 16/600 Superdex 75 pg, 20 mM Tris-HCl (pH 7.5), 150 mM NaCl, 1 mM 1,4-dithiothreitol, 4°C, 1 mL/min; retention times compared to molecular weight standards

Molecule	HPLC/MS of metabolite extracts, wild type versus nudC deletion strain [1]	stoichiometry N [2]
CCc1cc(C(=O)C2C=CN([C@@H]3O[C@H](COP(=O)(O)OP(=O)(O)OC[C@H]4O[C@@H](n5cnc6c(N)ncnc65)[C@H](O)[C@@H]4O)[C@@H](O)[C@H]3O)C=C2C(N)=O)ccn1 (some centres unmarked) [ETH-NAD adduct]	nudC encodes a functional NudC that hydrolyzes ETH-NAD adduct	
B1		2

From publication PMC12772312, “The MAB_3513c gene plays a key role in intrinsic resistance of Mycobacterium abscessus to isoniazid and ethionamide” (Microbiology Spectrum, 2025)
